Data published in BindingDB's records for patent US12351556 (Inserm (Institut National De La Sante Et De La Recherche …, 2025).

What follows are molecules tested against Mitogen-activated protein kinase 14 (Homo sapiens, UniProt Q16539) (assay: In Vitro Affinity Assay).
Mitogen-activated protein kinase 14, sequence (Q16539 whole entry): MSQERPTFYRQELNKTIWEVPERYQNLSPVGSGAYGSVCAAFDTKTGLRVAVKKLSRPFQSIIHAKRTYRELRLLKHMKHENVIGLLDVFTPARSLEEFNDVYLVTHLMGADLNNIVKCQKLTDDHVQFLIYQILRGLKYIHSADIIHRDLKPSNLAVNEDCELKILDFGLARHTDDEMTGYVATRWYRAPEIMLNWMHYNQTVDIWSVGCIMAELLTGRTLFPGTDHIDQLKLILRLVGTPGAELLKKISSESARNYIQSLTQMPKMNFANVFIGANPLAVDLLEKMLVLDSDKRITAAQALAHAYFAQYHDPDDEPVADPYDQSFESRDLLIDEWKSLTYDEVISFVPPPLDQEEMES
Source text: Not found
An IC50 of 1420 nM was found for `O=C1NCC(Nc2ccc(F)cc2)C=C1c1cccc2[nH]ccc12` (stereo not drawn) [US12351556, Compound 119] in this work. An IC50 of 1060 nM was found for `Cc1ccccc1NC1=CNC(=O)C(c2cccc3[nH]ccc23)C1` (stereo not drawn) [US12351556, Compound 130] in this work. An IC50 of 1040 nM was found for `O=C1NCC(NC2=CC(O)CC=C2)C=C1c1cccc2[nH]ccc12` (stereo not drawn) [US12351556, Compound 134] in this work. An IC50 of 660 nM was found for `O=C1NCC(NC2=CC(Br)CC=C2)C=C1c1cccc2[nH]ccc12` (stereo not drawn) [US12351556, Compound 142] in this work. An IC50 of 5250 nM was found for `COc1ccccc1NC1=CNC(=O)C(c2cccc3[nH]ccc23)C1` (stereo not drawn) [US12351556, Compound 121] in this work. An IC50 of 3670 nM was found for `COc1ccc(NC2=CNC(=O)C(c3cccc4[nH]ccc34)C2)cc1` (stereo not drawn) [US12351556, Compound 123] in this work. An IC50 of 430 nM was found for `O=C1NCC(Nc2ccc(F)cc2)C=C1c1cccc2[nH]ccc12` (stereo not drawn) [US12351556, Compound 120] in this work. An IC50 of 3030 nM was found for `O=C1NC=C(Nc2ccccc2)CC1c1cccc2[nH]ccc12` (stereo not drawn) [US12351556, Compound 67] in this work. An IC50 of 1460 nM was found for `O=C1NC=C(Nc2ccccc2)CC1c1ccccc1Br` (stereo not drawn) [US12351556, Compound 69] in this work. An IC50 of 2720 nM was found for `O=C1NCC(Nc2ccccc2Br)C=C1c1cccc2[nH]ccc12` (stereo not drawn) [US12351556, Compound 141] in this work. An IC50 of 2350 nM was found for `O=C1NCC(Nc2ccc(Br)cc2)C=C1c1cccc2[nH]ccc12` (stereo not drawn) [US12351556, Compound 143] in this work. An IC50 of 230 nM was found for `O=C1NCC(Nc2ccccc2F)C=C1c1cccc2[nH]ccc12` (stereo not drawn) [US12351556, Compound 118] in this work. An IC50 of 5530 nM was found for `COc1cccc(NC2=CNC(=O)C(c3cccc4[nH]ccc34)C2)c1` (stereo not drawn) [US12351556, Compound 122] in this work.
